Several values for one entry are separate records, joined by “and”; a condition that tells them apart may be missing. Equal entries are not always repeated.

For assay [1], the target named is Glutamate receptor 3 (Rattus norvegicus, UniProt P19492).
In assay [2] the target is Glutamate receptor 3 (Homo sapiens, UniProt P42263).
Sequence of Glutamate receptor 3 (Homo sapiens, UniProt P42263) (P42263 whole entry): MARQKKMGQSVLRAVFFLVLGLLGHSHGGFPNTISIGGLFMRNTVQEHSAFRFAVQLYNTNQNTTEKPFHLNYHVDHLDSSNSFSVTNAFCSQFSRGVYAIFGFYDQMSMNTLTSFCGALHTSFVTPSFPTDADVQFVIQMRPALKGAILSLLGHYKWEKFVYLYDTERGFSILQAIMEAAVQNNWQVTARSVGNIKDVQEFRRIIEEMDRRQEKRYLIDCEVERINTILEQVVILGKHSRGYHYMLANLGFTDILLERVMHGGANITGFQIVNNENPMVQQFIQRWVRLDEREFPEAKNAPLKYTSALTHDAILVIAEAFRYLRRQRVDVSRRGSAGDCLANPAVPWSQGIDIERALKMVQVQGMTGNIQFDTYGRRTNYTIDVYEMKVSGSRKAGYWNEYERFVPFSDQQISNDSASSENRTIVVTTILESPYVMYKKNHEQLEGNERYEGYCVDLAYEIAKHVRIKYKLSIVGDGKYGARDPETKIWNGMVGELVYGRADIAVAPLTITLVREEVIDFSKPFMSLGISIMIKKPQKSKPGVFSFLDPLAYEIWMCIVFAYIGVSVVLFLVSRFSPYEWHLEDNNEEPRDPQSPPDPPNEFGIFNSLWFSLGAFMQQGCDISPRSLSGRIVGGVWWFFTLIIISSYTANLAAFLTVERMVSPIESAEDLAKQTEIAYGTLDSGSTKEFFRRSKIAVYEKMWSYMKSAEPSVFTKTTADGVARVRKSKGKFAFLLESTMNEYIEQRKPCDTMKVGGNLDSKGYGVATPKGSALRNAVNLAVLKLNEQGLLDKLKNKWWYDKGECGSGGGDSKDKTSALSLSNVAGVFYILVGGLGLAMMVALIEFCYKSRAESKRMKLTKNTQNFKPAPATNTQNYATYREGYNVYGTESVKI

Sequence of Glutamate receptor 3 (Rattus norvegicus, UniProt P19492) (P19492 whole entry): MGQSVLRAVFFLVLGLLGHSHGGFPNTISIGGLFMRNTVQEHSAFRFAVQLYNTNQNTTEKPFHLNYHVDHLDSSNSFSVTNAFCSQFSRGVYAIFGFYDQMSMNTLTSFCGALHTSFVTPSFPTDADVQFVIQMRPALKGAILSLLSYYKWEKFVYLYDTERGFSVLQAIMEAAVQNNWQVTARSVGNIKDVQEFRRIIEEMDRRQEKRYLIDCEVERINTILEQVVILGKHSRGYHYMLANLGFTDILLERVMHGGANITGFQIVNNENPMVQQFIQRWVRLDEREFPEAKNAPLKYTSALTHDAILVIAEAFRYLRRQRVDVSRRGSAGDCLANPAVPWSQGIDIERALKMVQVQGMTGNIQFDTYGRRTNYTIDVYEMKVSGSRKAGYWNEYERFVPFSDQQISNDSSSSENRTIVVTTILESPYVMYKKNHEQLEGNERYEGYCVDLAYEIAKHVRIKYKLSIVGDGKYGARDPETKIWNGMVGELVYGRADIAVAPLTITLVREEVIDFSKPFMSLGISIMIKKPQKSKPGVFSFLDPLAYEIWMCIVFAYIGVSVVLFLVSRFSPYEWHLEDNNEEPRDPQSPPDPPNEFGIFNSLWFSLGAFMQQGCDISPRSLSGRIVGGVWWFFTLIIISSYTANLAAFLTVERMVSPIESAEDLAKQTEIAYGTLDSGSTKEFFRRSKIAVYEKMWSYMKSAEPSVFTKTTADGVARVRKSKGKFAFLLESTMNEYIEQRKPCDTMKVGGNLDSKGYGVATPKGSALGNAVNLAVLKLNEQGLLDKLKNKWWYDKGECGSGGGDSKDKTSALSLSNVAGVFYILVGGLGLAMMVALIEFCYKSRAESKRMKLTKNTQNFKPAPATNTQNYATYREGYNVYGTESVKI

For `C/C(=C\C=C\[C@@H](C)C(=O)O)[C@H]1CN[C@H](C(=O)O)[C@H]1CC(=O)O`, the Ki (as a rule, the dissociation constant of the complex between target and ligand, obtained from inhibition or displacement) on Glutamate receptor 3 [1] is 3.54 µM; at Glutamate receptor 3 [2], 2.77 µM and 4.59 µM.

For the compound `CN1Cc2c(S(=O)(=O)N(C)C)cc3c(c2C1)NC(=O)C3N=O` (centres undefined), the inhibitory constant (Ki) is 0.782 µM at Glutamate receptor 3 [1]; 1.43 µM and > 10 µM and 8.45 µM at Glutamate receptor 3 [2].

As for `Cc1onc(OCC(=O)O)c1CC(N)C(=O)O` (centres undefined) [2-Amino-3-(3-carboxymethoxy-5-methyl-isoxazol-4-yl)-propionic acid(AMOA)], the Ki at Glutamate receptor 3 [1] and at Glutamate receptor 3 [2] was over 10 µM in each case.

`N#Cc1cc2nc(O)c(O)nc2cc1[N+](=O)[O-]` [7-Cyano-3-hydroxy-6-nitro-quinoxalin-2-ol anion] came in with a Ki on Glutamate receptor 3 [1] of 0.47 µM.

`N[C@@H](Cn1cc(F)c(=O)[nH]c1=O)C(=O)O` [(S)-5-Fluorowillardiine] registered an inhibition constant (Ki) on Glutamate receptor 3 [1] of 0.018 µM.

With `NC(CCC(=O)NCS(=O)(=O)O)C(=O)O` (centres undefined) [CAS_90237-02-8], the Ki at Glutamate receptor 3 [1] and on Glutamate receptor 3 [2] was over 10 µM in each case.

On to `O=C1N=c2cc(N(O)O)c(-n3ccnc3)cc2=NC1=O` [CAS_3035216], for which the Ki was 0.407 µM on Glutamate receptor 3 [1]; 0.63 µM and 2.45 µM and 1.96 µM at Glutamate receptor 3 [2].

With `C=C(C)[C@H]1CN[C@H](C(=O)O)[C@H]1CC(=O)O` [Digensaeure], the Ki at Glutamate receptor 3 [2] was 2.63 µM and 8.05 µM.

As for `CC(C)[C@H](NC(=O)[C@H](CCCCN)NC(=O)[C@@H](Cc1c[nH]c2ccccc12)NC(=O)[C@H](Cc1ccc(O)cc1)NC(=O)[C@H](CS)NC(=O)[C@H](N)Cc1ccc2ccccc2c1)C(=O)N[C@@H](CS)C(=O)N[C@@H](Cc1ccc2ccccc2c1)C(N)=O` [Dnal,Cys,Tyr,DTrp,Lys,Val,Cys,Nal-nh2], on Glutamate receptor 3 [2], affinity was put at a Ki of 0.494 µM.

Regarding `CC1=NN=C(c2ccc(N)cc2)c2cc3c(cc2C1)OCO3` [GYKI-52466], the inhibition constant Ki at Glutamate receptor 3 [1] and at Glutamate receptor 3 [2] was over 10 µM each time.

Turning to `O=C1N=c2cc([N+](=O)[O-])c([N+](=O)[O-])cc2=NC1=O` [NSC_3140], on Glutamate receptor 3 [2], the Ki is 2.09 µM and 1.66 µM.

As for `O=C1N=c2c3c(ccc2=C1NO)C([N+](=O)[O-])CCC3` (centres undefined) [NSC_5311098], the Ki at Glutamate receptor 3 [1] and on Glutamate receptor 3 [2] was over 10 µM in each case.
